In patent US12383510B2 (Starton Therapeutics, Inc., priority 2020, dated 2025):
Entries after “also recorded” stand apart in the source; their conditions may differ. Marks after values point to notes of the source that are not given here.

Legend:
[1] = tested on: healthy female volunteers; test: Phase 1 study: antiemetic effect of oral olanzapine doses following apomorphine challenge on day 8; format: in vivo, human; settings: for Nausea Score 1-120 min.: apomorphine 0.05 mg/kg, scale 1=no nausea, 10=severe nausea
Protocol: Twenty-four healthy female volunteers were enrolled. Four active-treatment groups and a cohort of placebo-treated subjects were evaluated.
Subjects were administered study drug once daily for 8 days. During this period, subjects maintained a study diary of their side effects. The subject diary was used to collect on a daily basis any adverse events including an assessment of the presence and/or intensity of sedation on a numeric scale where 1=no sedation and 10=excessive sedation.
On the 8th day, subjects were administered apomorphine at a dose of 0.05 mg/kg and assessed over 6 hours. During this period, subjects were asked to record episodes of nausea on a numeric scale every 15 minutes for the duration of assessment. The intensity of nausea was captured using a 1-10 rating scale where 1=no nausea and 10=severe nausea. Emesis intensity was also captured where 1=no emesis and 10=severe emesis. Episodes of retching or emesis were collected and measured for the absolute number of retches or vomits during the collection period and documented for the time of the specific event following the administration of the apomorphine.

[2] = clinical; settings: human, plasma, oral
[3] = oral olanzapine 2 mg a day, apomorphine challenge
[4] = oral olanzapine 4 mg a day, apomorphine challenge
[5] = oral olanzapine 6 mg a day, apomorphine challenge
[6] = oral olanzapine 8 mg a day, apomorphine challenge

## Cc1cc2c(s1)Nc1ccccc1N=C2N1CCN(C)CC1 [olanzapine, 2-methyl-10-(4-methyl-1-piperazinyl)-4H-thieno-[2,3-b][1,5]benzo-diazepine]
[1]; 2 mg olanzapine steady state dose
  Nausea severity scores during 0-120 min following apomorphine challenge, comparison with placebo: not significantly different than placebo
[1]; 4 mg olanzapine steady state dose, p<0.05
  Nausea severity scores during 0-120 min following apomorphine challenge, comparison with placebo: significantly different than placebo
[1]; 4 mg, 6 mg and 8 mg dose, apomorphine challenge
  Maximum intensity of nausea, comparison between doses: no different
[1]; 6 mg olanzapine steady state dose, p<0.05
  Nausea severity scores during 0-120 min following apomorphine challenge, comparison with placebo: significantly different than placebo
[1]; 8 mg olanzapine steady state dose
  Nausea severity scores during 0-120 min following apomorphine challenge, comparison with placebo: not different from the placebo control; also recorded: not significantly different than placebo
[1]; oral olanzapine 2 mg a day for 8 days
  Nausea Score 1-120 min.: 6**
[1]; [3]
  Nausea Score 1-120 min. (severity in words): Moderate
  Retching (incidence): 40%
  Vomiting (incidence): 40%
[1]; oral olanzapine 4 mg a day for 8 days
  Nausea Score 1-120 min.: 3.4 #
[1]; [4]
  Nausea Score 1-120 min. (severity in words): Mild
  Retching (incidence): 0%
  Vomiting (incidence): 20%
[1]; oral olanzapine 6 mg a day for 8 days
  Nausea Score 1-120 min.: 3.7 #
[1]; [5]
  Nausea Score 1-120 min. (severity in words): Mild
  Retching (incidence): 0%
  Vomiting (incidence): 0%
[1]; oral olanzapine 8 mg a day for 8 days
  Nausea Score 1-120 min.: 5**
[1]; [6]
  Nausea Score 1-120 min. (severity in words): Mild
  Retching (incidence): 20%
  Vomiting (incidence): 20%
[2]; 4 mg a day
  concentration at 1 day: 5 ng/mL
[2]; 6 mg a day
  concentration at 1 day: 8 ng/mL
